In patent US20260015311A1, “AMINO LIPID COMPOUND, PREPARATION METHOD THEREFOR, AND USE THEREOF” (SHENZHEN SHENXIN BIOTECHNOLOGY CO., LTD., priority 2022, published 2026):
Read-outs that look alike come from different tables or passages of the source.

Tests used:
[1] = Toxicokinetic, plasma concentration of compound I-6-II after empty liposome preparation; format: in vivo, cynomolgus monkeys; conditions: for half-life / AUC(0-t) / Cmax / Tmax: cynomolgus monkey, plasma, intramuscular
Description: 1.9078 g of Compound I-6-II, 0.3985 g of DSPC, 0.7575 g of CHO-HP and 0.1972 g of PEG-DMG (average molecular weight of 2000) were weighed in the molar ratio of 49.5:10:39:1.5, dissolved in absolute ethanol and diluted to 237.5 mL to obtain an alcohol phase. The alcohol phase was mixed and encapsulated by using a microfluidic device (MPE-L^2), with an acetic acid-sodium acetate buffer (0.2 mol/L, pH=5) as the aqueous phase, and a volume ratio of aqueous phase:alcohol phase of 3:1. […]
The animal experiment was set up with a total of 5 groups (5 animals/gender/group), and the groups and the dosages thereof were as follows: negative control group (0 μg compound I-6-II/animal), empty liposome low-dosage group (300 μg compound I-6-II/animal) and empty liposome high-dosage group (1200 μg compound I-6-II/animal). The animals in each group were administered intramuscularly once every 2 weeks for a total of 3 times, i.e., administered on D1, D15 and D29.
Blood samples were collected from animals before and 4 h after the first (D1) and the last (D29) administration in the negative control group; and Blood samples were collected from animals before and 15 min, 1 h, 2 h, 4 h, 8 h, 24 h, 32 h and 48 h after the first (D1) and the last (D29) administration in the empty liposome group. The plasma concentration of compound I-6-II in cynomolgus monkeys was detected to investigate the exposure of compound I-6-II in cynomolgus monkeys after administration in each group of animals.
The main TK parameters of compound I-6-II in animals of the empty liposome low- and high-dosage groups after the first administration (D1) and the last administration (D29) are as shown in Table 7 below.

SD rats = conditions: Covid-19 S protein mRNA-LNP, 100 μg mRNA/animal, intramuscular once a week for 3 weeks, versus ALC-0315 and SM-102, FIG. 9
liver = test: Targeting assay, fluorescence in liver after intramuscular injection; format: in vivo, mice; conditions: 15 μg mRNA per animal, 6 h after injection, dissected liver
Description: The lipids were mixed with DSPC, CHO-HP, M-DMG2000 (i.e. PEG2000-DMG) in a molar ratio of 50:10:38.5:1.5 and dissolved in absolute ethanol. mRNA was dissolved in a sodium acetate solution (0.2M, pH=5.0). The samples of various prescriptions were prepared at a water phase:alcohol phase=9 ml/min: 3 ml/min by using a microfluidic equipment (MPE-L2) and a chip (SN.000035). The two phases were mixed by injecting them into the microfluidic chip according to the interface requirements, and then the drug solution was loaded into a 100KD dialysis bags, immersed in a beaker containing 1 L dialysis solution and wrapped with aluminum foil, and dialyzed at 100 rpm for 1 h at room temperature, and then the dialysis solution was replaced and the dialysis continued for 1 h.
Formulation of dialysis solution: 1×PBS+8% sucrose solution: 2 packets of 1×PBS powder were taken into a beaker, dissolved with 2 L DEPC water, added with 160 g of sucrose additionally, and mixed to obtain the 1×PBS+8% sucrose solution.
The mass ratio of mRNA:Lipids in the obtained lipid nanoparticles were about 1:10.
Fluorescent protein-encoding mRNA-LNP preparations containing Compound (I-6-II), MC3 or SM102, respectively were prepared by using the formulation method of mRNA lipid nanoparticle (LNP) preparations as described above, selecting a fluorescent protein-encoding mRNA as the mRNA and the compound (I-6-II), MC3 or SM102, respectively as the lipid.
Each preparation to be tested was administered to mice by intramuscular injection, with each animal receiving 15 μg mRNA preparation sample. 6 h after sample injection, the mice were anesthetized by isoflurane inhalation, and injected intraperitoneally with 200 μL of D-Luciferin (concentration 10 mg/ml) luciferase development substrate. […] After development of living imaging of the intramuscularly injected animals, they were immediately dissected, followed by observation of the fluorescence in the liver immediately after the dissection.

[2] = female, im, 300 ug, empty liposome low-dosage group (300 μg compound I-6-II/animal), D 1, female, Mean
[3] = female, im, 300 ug, empty liposome low-dosage group (300 μg compound I-6-II/animal), D 29, female, Mean
[4] = female, im, 1200 ug, empty liposome high-dosage group (1200 μg compound I-6-II/animal), D 1, female, Mean
[5] = female, im, 1200 ug, empty liposome high-dosage group (1200 μg compound I-6-II/animal), D 29, female, Mean
[6] = male, im, 300 ug, empty liposome low-dosage group (300 μg compound I-6-II/animal), D 1, male, Mean
[7] = male, im, 300 ug, empty liposome low-dosage group (300 μg compound I-6-II/animal), D 29, male, Mean
[8] = male, im, 1200 ug, empty liposome high-dosage group (1200 μg compound I-6-II/animal), D 1, male, Mean
[9] = male, im, 1200 ug, empty liposome high-dosage group (1200 μg compound I-6-II/animal), D 29, male, Mean

Structure (SMILES): CCCCCCCCCOC(=O)CCCCCCCN(CCCCCCCC(=O)OC(CCCCCCCC)CCCCCCCC)[C@@H]1CCC[C@H](O)C1 [Compound (I-6-II)]
- accumulation ([1]; after 4 weeks of continuous administration (3 times in total), cynomolgus monkeys): did not accumulate
- half-life ([1]; both sexes, cynomolgus monkeys, over the empty liposome groups, read-out: plasma half-life): 4.68 to 6.45 h
- AUC(0-t) [1, 2]: 838 ng·h/mL
- Cmax [1, 2]: 79.1 ng/mL
- Tmax [1, 2]: 3.2 h
- half-life ([1]; female, im, 300 ug, empty liposome low-dosage group (300 μg compound I-6-II/animal), D 1, female, Mean, read-out: t1/2 (converted)): 5.28 h
- AUC(0-t) [1, 3]: 783 ng·h/mL
- Cmax [1, 3]: 59.3 ng/mL
- Tmax [1, 3]: 6 h
- half-life ([1]; female, im, 300 ug, empty liposome low-dosage group (300 μg compound I-6-II/animal), D 29, female, Mean, read-out: t1/2 (converted)): 3.58 h
- AUC(0-t) [1, 4]: 4570 ng·h/mL
- Cmax [1, 4]: 334 ng/mL
- Tmax [1, 4]: 5 h
- half-life ([1]; female, im, 1200 ug, empty liposome high-dosage group (1200 μg compound I-6-II/animal), D 1, female, Mean, read-out: t1/2 (converted)): 5.07 h
- AUC(0-t) [1, 5]: 3090 ng·h/mL
- Cmax [1, 5]: 194 ng/mL
- Tmax [1, 5]: 8 h
- half-life ([1]; female, im, 1200 ug, empty liposome high-dosage group (1200 μg compound I-6-II/animal), D 29, female, Mean, read-out: t1/2 (converted)): 5.29 h
- AUC(0-t) [1, 6]: 652 ng·h/mL
- Cmax [1, 6]: 50.6 ng/mL
- Tmax [1, 6]: 4.8 h
- half-life ([1]; male, im, 300 ug, empty liposome low-dosage group (300 μg compound I-6-II/animal), D 1, male, Mean, read-out: t1/2 (converted)): 5.1 h
- AUC(0-t) [1, 7]: 623 ng·h/mL
- Cmax [1, 7]: 42.4 ng/mL
- Tmax [1, 7]: 7.2 h
- half-life ([1]; male, im, 300 ug, empty liposome low-dosage group (300 μg compound I-6-II/animal), D 29, male, Mean, read-out: t1/2 (converted)): 5.59 h
- AUC(0-t) [1, 8]: 2240 ng·h/mL
- Cmax [1, 8]: 198 ng/mL
- Tmax [1, 8]: 3.2 h
- half-life ([1]; male, im, 1200 ug, empty liposome high-dosage group (1200 μg compound I-6-II/animal), D 1, male, Mean, read-out: t1/2 (converted)): 6.07 h
- AUC(0-t) [1, 9]: 2280 ng·h/mL
- Cmax [1, 9]: 146 ng/mL
- Tmax [1, 9]: 8 h
- half-life ([1]; male, im, 1200 ug, empty liposome high-dosage group (1200 μg compound I-6-II/animal), D 29, male, Mean, read-out: t1/2 (converted)): 6.45 h
- moderate claudication (SD rats): significantly reduced or decreased
- severe swelling at the injection site (SD rats): significantly reduced or decreased
- fluorescence intensity in liver (liver): 2.49E+05
